≈ marks a conversion by molar mass, not a printed value. Bridge positions count the residues as written; N and C are the ends. Square brackets hold non-standard residues; d marks the D form. Peptide text beside a SMILES is read from it. d(aIle) = CC[C@H](C)[C@@H](N)C(=O)O; dNMeF = CN[C@H](Cc1ccccc1)C(=O)O
How the values were obtained:
MRSA 1: MRSA ATCC 700699 = test: microbe, parasite or virus in culture
Method: (§1) VIII. MIC testing (extended panel)
(§2) Bacterial cultures were grown overnight i n Mueller-Hinton Agar (MHA) plates and adjusted to a final concentration of 10 5 – 106 CFU/ml. 100 µl of inoculum in Meuller -Hinton broth (MHB) was mixed with equal volume of peptides (dissolved in MHB) at 2x their concentration in a 96 well plate. In parallel experiments, MIC values were determined in the media containing polysorbate 80 (0 .002%, v/v) to […]
(§3) prevent non-specific adsorption of the peptides to plastic surfaces. The final peptides concentrations […]
(§4) Positive and negative controls contained 200 µl of inoculum without any peptide dissolved in broth, respectively. The 96 well plates were then incubated at 37 °C for 24 h.
(§5) All the experiments were performed in two independent duplicates and the MIC was determined as the […]
(§6) Minimum bactericidal concentration
(§7) The lowest concentration in which no visible colonies could be detected was taken as the MBC.
(§8) 80. Strain information: MRSA 1: MRSA ATCC 700699, MRSA 2: MRSA DR 42412 (sputum), MRSA
(§9) 3: MRSA DM21455 (eye). […] Staphylococcus aureus ATCC

[1] = system: Staphylococcus aureus ATCC 29213; test: microbe, parasite or virus in culture
Method: as §1, §2, §3, §4, §5, §6, §7, §8, §9

[2] = system: MRSA 3: MRSA DM21455 (eye); test: microbe, parasite or virus in culture
Method: as §1, §2, §3, §4, §5, §6, §7, §8, §9

VRE 2: VRE ATCC 29212 = test: organism not typed
Method: as §1, §2, §3
(§10) Positive and negative controls contained 200 µl of inoculum without any peptide dissolved in broth, respectively. The 96 well plates were then incubated at 37 °C for 24 h. […]
as §8, §9

VRE 1: VRE ATCC 700802 = test: organism not typed
Method: as §1, §2, §3, §10, §8, §9

MRSA ATCC 33591 = test: microbe, parasite or virus in culture; conditions: ATCC 33591, 24 h
[3] = system: MRSA 2: MRSA DR 42412 (sputum); test: microbe, parasite or virus in culture
Method: as §1, §2, §3, §10, §8, §9

[4] = Lipid II TLC binding assay; conditions: peptide : lipid II 2 : 1; 50 mM Tris/HCl, pH 7.5, 30 min, room temperature; three independent experiments
Method: X. Complex formation of teixobactin with lipid II and geranyl pyrophosphate Complex formation of teixobactin analogues 8 (Ala10-teixobactin) and 16 (Arg10-teixobactin) with lipid II and geranyl pyrophosphate was performed using TLC as described previously.7 Binding of teixobactin to lipid II and geranyl pyrophosphate was analysed by incubating 30 µL of 2 nmol of each precursor with 2 or 4 nmoles of teixobactin in 50 mM Tris/HCl, pH 7.5, for 30 min at room temperature. Complex formation was analysed by extracting unbound precursors from the reaction mixture with 30 µL n- butanol/6M pyridine acetate (pH 4.2) (2:1; vol/vol) followed by TLC analysis of the organic layer using chloroform/methanol/water/ammonia (88:48:10:1, v/v/v/v) as the solvent and detection of lipid/phosphate containing precursors by phosphomolybdic acid staining. The TLC figures represent the results obtained through thr ee independent experiments.
Figure S76 : Binding of teixobactin analogues 8 (Ala10-teixobactin ) and 16 (Arg10-teixobactin) with lipid II using the protocols described in literature .7 Partial binding is observed when the ratio of lipid II to the analogue is 1:1 (indicated by lighter spots on the TLC) and complete binding is observed when the ratio of lipid II to the analogue is 1:2 in case of analogue 16 and 1:4 in case of analogue 8 (indicated […]
(also on this page, place not known: polyso rbate vancomycin , concentr ation 80 . wer e µ l (10 1-105 10 10 previously n - TL C three S76: (Ala10-teixobactin) literature.7 Lipid II Lipid II: Compound 8 = 1:1 Lipid II: Compound 16 = 1:1 Lipid II: Compound 8 = 1:2 Lipid II: Compound 16 = 1:2 Lipid II: Compound 8 = 1:4)

[5] = 1H DOSY at each titration point
M. smegmatis ATCC 607 = test: microbe, parasite or virus in culture; conditions: ATCC 607, 72 h
Method: were grown in Mueller Hinton broth (Oxoid) in triplicate. All incubations were at 37°C. Dilutions were carried out in triplicate. 100 µl of autoclaved Mueller Hinton broth was added to wells 2-12 in a 96-well plate. 200 µl of the peptide was added to well one at a concentration of 256 µg/mL. 100µl of peptide in well one was taken up and pipetted into well two. The mixture was then mixed via pipetting before 100µl was taken up and pipetted into well three. This process was repeated up to well 11. Once […]
peptide present. Thus, the concentrations (in µg/mL) were: 256, 128, 64, 32, 16, 8, 4, 2, 1, 0.5, 0.25 and no peptide present. Each well was then inoculated with 100µl of bacteria that had been diluted to an […]
This was repeated three times. The 96-well plates were then incubated at 37°C for 24 hours. The MIC was determined to be the lowest concentration at which there was no growth visible. […]
was repeated at an altered initial concentration of 64 µg/ml. Therefore, the new concentrations for MIC […]
Middlebrook 7H9 broth (SIGMA) supplemented to 5% Middlebrook ADC (SIGMA) growth

[6] = NMR titration with geranyl pyrophosphate (lipid II mimic); type: binding
Method: In order to evaluate target binding, we have performed the lipid II TLC binding assay[2] with Ala10-teixobactin. This assay provides qualitative binding data of Ala10-teixobactin with lipid II. […] Therefore, in order better understand the target binding of teixobactin analogues in a quantitative manner, extensive NMR studies (Fig. 6) on Ala10-teixobactin and geranyl pyrophosphate were performed.
This can occur due to intermediate exchange on the NMR time-scale, and therefore cooperative binding is not an obvious choice.

rabbit erythrocytes = type: cell-based; conditions: rabbit erythrocytes 4% v/v; peptides 0.195 – 250 µg/ml; 37°C, 1 h; haemoglobin release spectrophotometrically; average of triplicate experiments
Method: Fig. 5 Hemolytic activity of teixobactin analogues 12 and 13 for rabbit erythrocytes. The blood cells were exposed to various concentrations of peptides for 1 h and the release of haemoglobin was determined spectrophotometrically. Each value represents an average of triplicate experiments.
Cytotoxicity assay by Formazan bioreduction
Medium (DMEM) supplemented with 10% serum. The cells were repeatedly rinsed with Hank’s
in HBSS 24 hrs post-seeding.
were incubated for 3 hrs at 37°C.
XII. Haemolytic Assay Protocol
Hemolytic assay was performed

With `CC[C@H](C)[C@H](NC(=O)[C@@H](Cc1ccccc1)NC)C(=O)N[C@@H](CO)C(=O)N[C@H](CCC(N)=O)C(=O)N[C@@H](C(=O)N[C@H](C(=O)N[C@@H](CO)C(=O)N[C@H]1C(=O)N[C@@H](C)C(=O)N[C@@H](C)C(=O)N[C@@H]([C@@H](C)CC)C(=O)O[C@H]1C)[C@@H](C)CC)[C@@H](C)CC` [Compound 8, Ala10-teixobactin] (H-[dNMeF]IS[dQ][d(aIle)]IS[dT]AAI; ester 8-C) as the compound, how does the MIC (MRSA 1: MRSA ATCC 700699; ATCC 700699, 24 h) read?
Its MIC is 4 μg mL^–1.

What about the “MIC (without polysorbate 80)” value (MRSA 1: MRSA ATCC 700699; ATCC 700699, 24 h) of the same compound?
Its value is 8 µg/mL (≈ 6.9 µM).

What about the MBC (MRSA 1: MRSA ATCC 700699; MRSA 1 (MRSA ATCC 700699), plated on MHA, 37 °C, 24 h) of the same compound?
Its MBC is 16 μg mL^–1.

What about the “MIC (with polysorbate 80)” value (MRSA 1: MRSA ATCC 700699; MRSA 1, MHB containing polysorbate 80 (0.002%, v/v), 37 °C, 24 h, two independent duplicates) of the same compound?
The value was 4 µg/mL (≈ 3.45 µM).

And the “MIC (without polysorbate 80)” value ([1]; ATCC 29213, 24 h)?
The value was 4 µg/mL (≈ 3.45 µM).

What about the “MIC (with polysorbate 80)” value ([1]; S. aureus ATCC 29213, MHB containing polysorbate 80 (0.002%, v/v), 37 °C, 24 h) of the same compound?
Its value is 1 µg/mL (≈ 0.863 µM).

What about the MBC ([1]; Staphylococcus aureus ATCC 29213, plated on MHA, 37 °C, 24 h) of the same compound?
Its MBC is 2 μg mL^–1.

And the MIC ([2]; 3: DM21455 (eye, 24 h))?
The MIC was 1 μg mL^–1.

And the “MIC (without polysorbate 80)” value ([2]; 3: DM21455 (eye, 24 h))?
The value was 4 µg/mL (≈ 3.45 µM).

And the MBC ([2]; MRSA 3 (MRSA DM21455), plated on MHA, 37 °C, 24 h)?
The MBC was 2 μg mL^–1.

And the “MIC (with polysorbate 80)” value ([2]; MRSA 3, MHB containing polysorbate 80 (0.002%, v/v), 37 °C, 24 h)?
Its value is 1 µg/mL (≈ 0.863 µM).

What about the MIC (VRE 2: VRE ATCC 29212; ATCC 29212, 24 h) of the same compound?
Its MIC is 4 μg mL^–1.

What about the “MIC (without polysorbate 80)” value (VRE 2: VRE ATCC 29212; ATCC 29212, 24 h) of the same compound?
Its value is 8 µg/mL (≈ 6.9 µM).

And the “MIC (with polysorbate 80)” value (VRE 2: VRE ATCC 29212; VRE 2, MHB containing polysorbate 80 (0.002%, v/v), 37 °C, 24 h)?
The value was 4 µg/mL (≈ 3.45 µM).

What about the MIC (VRE 1: VRE ATCC 700802; ATCC 700802, 24 h) of the same compound?
Its MIC is 4 μg mL^–1.

What about the “MIC (without polysorbate 80)” value (VRE 1: VRE ATCC 700802; ATCC 700802, 24 h) of the same compound?
The value was 8 µg/mL (≈ 6.9 µM).

And the “MIC (with polysorbate 80)” value (VRE 1: VRE ATCC 700802; VRE 1, MHB containing polysorbate 80 (0.002%, v/v), 37 °C, 24 h)?
The value was 4 µg/mL (≈ 3.45 µM).

What about the MIC (MRSA ATCC 33591) of the same compound?
The MIC was 1–2 μg mL^–1.

And the MIC ([3]; 2: DR 42412 (sputum, 24 h))?
The MIC was 1 μg mL^–1.

What about the “MIC (without polysorbate 80)” value ([3]; 2: DR 42412 (sputum, 24 h)) of the same compound?
The value was 4 µg/mL (≈ 3.45 µM).

What about the MBC ([3]; MRSA 2 (MRSA DR 42412), plated on MHA, 37 °C, 24 h) of the same compound?
Its MBC is 4 μg mL^–1.

And the “MIC (with polysorbate 80)” value ([3]; MRSA 2, MHB containing polysorbate 80 (0.002%, v/v), 37 °C, 24 h)?
The value was 1 µg/mL (≈ 0.863 µM).

And the “lipid II spot on TLC” value [4]?
Its value is “a small amount of lipid II was still visible on TLC”.

What about the “aggregation in presence of geranyl pyrophosphate (diffusion coefficient)” value [5] of the same compound?
Its value is “no aggregation occurred”.

What about the MIC (M. smegmatis ATCC 607) of the same compound?
The MIC was 1–2 μg mL^–1.

What about the Kd ([6]; 2 Ile Hα, NMR titration of geranyl pyrophosphate) of the same compound?
The Kd was 348 ± 18 µM.

What about the Kd ([6]; 3 Ser Hα, NMR titration of geranyl pyrophosphate) of the same compound?
The Kd was 503 ± 8 µM.

And the Kd ([6]; 4 D-Gln Hα, NMR titration of geranyl pyrophosphate)?
Its Kd is 507 ± 2 µM.

What about the Kd ([6]; 5 D-Ile Hα, NMR titration of geranyl pyrophosphate) of the same compound?
The Kd was 483 ± 4 µM.

What about the Kd ([6]; 7 Ser Hα, NMR titration of geranyl pyrophosphate) of the same compound?
The Kd was 125 ± 3 µM.

What about the Kd ([6]; 8 D-Thr Hα, NMR titration of geranyl pyrophosphate) of the same compound?
The Kd was 204 ± 3 µM.

What about the Kd ([6]; 9 Ala Hα, NMR titration of geranyl pyrophosphate) of the same compound?
The Kd was 394 ± 4 µM.

What about the Kd ([6]; 10 Ala Hα, NMR titration of geranyl pyrophosphate) of the same compound?
Its Kd is 314 ± 3 µM.

And the Kd ([6]; 11 Ile Hα, NMR titration of geranyl pyrophosphate)?
Its Kd is 391 ± 4 µM.

And the Kd ([6]; Net (Total), overall binding by PCA)?
Its Kd is 138 ± 5 µM.

For melittin, which haemolytic activity (rabbit erythrocytes) is on record?
Its haemolytic activity is “substantial haemolytic activity”.

— PMC5855875, “Teixobactin analogues reveal enduracididine to be non-essential for highly potent antibacterial activity and lipid II binding” (Chemical Science, 2017)
